What was measured:
Test in all cases: IC50 for competition of protein binding to Kinobeads
Conditions in all cases: assay detail: Kinobeads competition in P. falciparum blood-stage lysate
UniProt Q8IDW4 = biological target: UniProt Q8IDW4
UniProt Q8I3J5 = biological target: UniProt Q8I3J5
UniProt Q8IIW5 = biological target: UniProt Q8IIW5
UniProt Q8IIM4 = biological target: UniProt Q8IIM4
UniProt Q8I566 = biological target: UniProt Q8I566
UniProt C0H530 = biological target: UniProt C0H530
UniProt O96278 = biological target: UniProt O96278
UniProt Q8ILS7 = biological target: UniProt Q8ILS7
UniProt Q8IJN8 = biological target: UniProt Q8IJN8
UniProt Q8IIJ8 = biological target: UniProt Q8IIJ8
UniProt Q8IKV8 = biological target: UniProt Q8IKV8
UniProt Q7KQL8 = biological target: UniProt Q7KQL8
UniProt Q6ZMA7 = biological target: UniProt Q6ZMA7
UniProt Q8IEF5 = biological target: UniProt Q8IEF5
UniProt Q8I1T4 = biological target: UniProt Q8I1T4
UniProt Q8I0U8 = biological target: UniProt Q8I0U8
UniProt Q8IM23 = biological target: UniProt Q8IM23
UniProt Q8IL19 = biological target: UniProt Q8IL19
UniProt Q8ILQ7 = biological target: UniProt Q8ILQ7
UniProt Q8IAM0 = biological target: UniProt Q8IAM0
UniProt C0H4U4 = biological target: UniProt C0H4U4
UniProt Q7KQL3 = biological target: UniProt Q7KQL3
UniProt Q8IK92 = biological target: UniProt Q8IK92
UniProt Q8IDD9 = biological target: UniProt Q8IDD9
UniProt Q8I5V9 = biological target: UniProt Q8I5V9
UniProt Q76NN8 = biological target: UniProt Q76NN8
UniProt Q8IHR8 = biological target: UniProt Q8IHR8
UniProt C6KT13 = biological target: UniProt C6KT13
UniProt Q8IL53 = biological target: UniProt Q8IL53
UniProt Q8I527 = biological target: UniProt Q8I527
UniProt Q8II61 = biological target: UniProt Q8II61
UniProt Q8I0V3 = biological target: UniProt Q8I0V3
UniProt Q8IKS4 = biological target: UniProt Q8IKS4
UniProt Q8I445 = biological target: UniProt Q8I445
UniProt Q8IIF4 = biological target: UniProt Q8IIF4
UniProt Q8IM32 = biological target: UniProt Q8IM32
UniProt Q8IJ34 = biological target: UniProt Q8IJ34
UniProt Q8IAM2 = biological target: UniProt Q8IAM2
UniProt Q8I3U9 = biological target: UniProt Q8I3U9
UniProt Q8I608 = biological target: UniProt Q8I608
UniProt C0H5A0 = biological target: UniProt C0H5A0
UniProt O77361 = biological target: UniProt O77361
UniProt C0H586 = biological target: UniProt C0H586
UniProt Q8IFN9 = biological target: UniProt Q8IFN9
UniProt Q8I2S6 = biological target: UniProt Q8I2S6
UniProt Q8IKL5 = biological target: UniProt Q8IKL5
UniProt Q8IDM2 = biological target: UniProt Q8IDM2
UniProt Q8I4Y5 = biological target: UniProt Q8I4Y5
UniProt Q8I6T3 = biological target: UniProt Q8I6T3
UniProt Q8IDJ8 = biological target: UniProt Q8IDJ8
UniProt Q8I5S6 = biological target: UniProt Q8I5S6

Measured: IC50
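Further: native unpurified kinases from lysate captured on beads bearing immobilized kinase inhibitors, with bead-bound kinases quantified by mass spectrometry across compound doses.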

Chain of UniProt Q8I0U8 (Q8I0U8 whole entry): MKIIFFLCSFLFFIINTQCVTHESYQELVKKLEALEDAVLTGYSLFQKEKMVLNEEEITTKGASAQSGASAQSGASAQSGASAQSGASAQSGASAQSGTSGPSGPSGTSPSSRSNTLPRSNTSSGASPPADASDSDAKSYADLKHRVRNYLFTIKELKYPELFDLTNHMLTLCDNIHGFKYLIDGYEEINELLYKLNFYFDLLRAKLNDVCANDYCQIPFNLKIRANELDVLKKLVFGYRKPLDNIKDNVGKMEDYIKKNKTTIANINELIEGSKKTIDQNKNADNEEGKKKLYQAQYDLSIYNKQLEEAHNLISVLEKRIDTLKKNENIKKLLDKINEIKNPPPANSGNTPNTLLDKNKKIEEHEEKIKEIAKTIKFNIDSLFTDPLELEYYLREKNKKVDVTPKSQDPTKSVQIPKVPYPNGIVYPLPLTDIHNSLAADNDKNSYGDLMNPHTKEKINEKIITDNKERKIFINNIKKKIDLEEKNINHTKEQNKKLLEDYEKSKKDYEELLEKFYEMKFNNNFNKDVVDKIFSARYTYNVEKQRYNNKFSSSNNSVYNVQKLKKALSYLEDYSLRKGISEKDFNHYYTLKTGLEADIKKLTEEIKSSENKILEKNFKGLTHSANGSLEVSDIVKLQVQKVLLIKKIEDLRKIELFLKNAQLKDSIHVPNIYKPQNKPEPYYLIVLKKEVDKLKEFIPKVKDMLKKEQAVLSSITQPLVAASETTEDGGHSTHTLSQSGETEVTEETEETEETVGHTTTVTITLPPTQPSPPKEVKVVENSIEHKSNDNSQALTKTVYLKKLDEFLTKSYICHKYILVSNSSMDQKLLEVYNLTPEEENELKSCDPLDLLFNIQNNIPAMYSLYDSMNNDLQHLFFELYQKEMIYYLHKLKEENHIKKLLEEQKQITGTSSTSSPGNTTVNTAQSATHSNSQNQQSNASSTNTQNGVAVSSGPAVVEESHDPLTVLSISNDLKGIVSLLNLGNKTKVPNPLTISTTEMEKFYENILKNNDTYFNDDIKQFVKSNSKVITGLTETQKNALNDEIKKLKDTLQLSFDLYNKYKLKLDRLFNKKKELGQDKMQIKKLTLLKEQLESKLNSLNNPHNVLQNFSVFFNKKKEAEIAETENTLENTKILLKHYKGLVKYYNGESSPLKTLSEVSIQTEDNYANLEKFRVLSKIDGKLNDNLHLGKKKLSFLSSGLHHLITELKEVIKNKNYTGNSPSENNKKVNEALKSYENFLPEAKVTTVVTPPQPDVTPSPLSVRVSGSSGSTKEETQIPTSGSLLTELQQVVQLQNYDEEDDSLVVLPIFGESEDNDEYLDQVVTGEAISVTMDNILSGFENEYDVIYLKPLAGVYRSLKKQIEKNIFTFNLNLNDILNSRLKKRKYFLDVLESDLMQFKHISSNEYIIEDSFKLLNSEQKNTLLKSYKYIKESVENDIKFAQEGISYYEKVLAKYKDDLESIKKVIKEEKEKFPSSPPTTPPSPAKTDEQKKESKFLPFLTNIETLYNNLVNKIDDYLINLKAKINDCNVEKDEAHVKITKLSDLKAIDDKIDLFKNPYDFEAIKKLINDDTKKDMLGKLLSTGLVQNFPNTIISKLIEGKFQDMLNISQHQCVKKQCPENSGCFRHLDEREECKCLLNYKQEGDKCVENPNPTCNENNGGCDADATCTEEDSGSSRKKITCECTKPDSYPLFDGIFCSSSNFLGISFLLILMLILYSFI
Chain of UniProt Q8ILQ7 (Q8ILQ7 whole entry): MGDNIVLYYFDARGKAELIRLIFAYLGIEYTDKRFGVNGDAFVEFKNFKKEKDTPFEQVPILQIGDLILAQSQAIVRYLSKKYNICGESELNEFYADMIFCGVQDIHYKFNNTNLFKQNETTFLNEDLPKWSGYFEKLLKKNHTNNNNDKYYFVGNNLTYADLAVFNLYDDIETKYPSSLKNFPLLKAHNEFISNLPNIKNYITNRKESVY
Chain of UniProt Q6ZMA7 (Q6ZMA7 whole entry): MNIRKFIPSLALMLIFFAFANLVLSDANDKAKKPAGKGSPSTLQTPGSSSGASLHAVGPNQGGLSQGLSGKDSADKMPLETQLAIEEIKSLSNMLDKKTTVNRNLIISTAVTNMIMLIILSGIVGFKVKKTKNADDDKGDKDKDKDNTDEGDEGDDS
Chain of UniProt Q8I566 (Q8I566 whole entry): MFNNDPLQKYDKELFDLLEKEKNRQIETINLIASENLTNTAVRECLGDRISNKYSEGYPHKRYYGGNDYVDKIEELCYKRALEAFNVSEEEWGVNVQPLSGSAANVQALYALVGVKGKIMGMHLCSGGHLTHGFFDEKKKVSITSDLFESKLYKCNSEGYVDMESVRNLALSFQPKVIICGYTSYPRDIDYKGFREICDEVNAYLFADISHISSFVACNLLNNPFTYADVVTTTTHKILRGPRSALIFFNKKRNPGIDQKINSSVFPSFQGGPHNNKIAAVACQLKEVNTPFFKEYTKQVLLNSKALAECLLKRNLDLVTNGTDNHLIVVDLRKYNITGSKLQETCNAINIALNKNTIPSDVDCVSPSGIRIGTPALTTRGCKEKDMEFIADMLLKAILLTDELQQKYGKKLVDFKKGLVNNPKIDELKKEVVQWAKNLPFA
Chain of UniProt Q7KQL3 (Q7KQL3 whole entry): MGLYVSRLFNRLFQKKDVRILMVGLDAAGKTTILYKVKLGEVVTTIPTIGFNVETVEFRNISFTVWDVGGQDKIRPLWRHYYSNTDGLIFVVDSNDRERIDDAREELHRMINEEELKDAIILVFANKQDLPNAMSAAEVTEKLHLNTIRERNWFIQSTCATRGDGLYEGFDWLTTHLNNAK
Chain of UniProt Q7KQL8 (Q7KQL8 whole entry): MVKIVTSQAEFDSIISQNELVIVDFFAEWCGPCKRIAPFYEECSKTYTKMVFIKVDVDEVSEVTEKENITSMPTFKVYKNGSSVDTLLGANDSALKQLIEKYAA

O=c1[nH]c2ccc(Cl)cc2c(NC2CN3CCC2CC3)c1-c1nc2ccccc2[nH]1 (stereo unspecified) [CHIR-124]
> 20 µM: all assays above
